Assay results from patent US12371410B2, “Isoxazoline compounds and use thereof” (METISA BIOTECHNOLOGY CO., LTD, priority 2019, dated 2025).

What was measured:
Type in all cases: in vivo
Leucania separata = assay: Insecticidal activity against Leucania separata, Airbrush spraying of corn leaf segments; conditions: Mythimna separata, foliar, 72 h; dose 0.05 mg/L, three days after administration, 3rd instar larvae; read-out: lethality rate to Leucania separata
Procedure: (§1) The compound to be determined was dissolved in a mixed solvent of acetone/methanol (1:1), followed by dilution with water containing 0.1% (wt) Tween 80 to a desired concentration.
(§2) The activities of the respective compounds against Leucania separata, Plutella xylostella, and Chilo suppressalis were determined by Airbrush spraying method.
(§3) The determination method was as follows: Corn leaves were cut into 2 cm long segments; the pressure of Airbrush spraying was 10 psi (about 0.7 kg/cm^2); both sides of each leaf segment were sprayed with 0.5 mL of the compound solution to be tested. After drying in the shade, ten 3nd instar larvae were inoculated for each treatment, and each treatment was replicated 3 times. After treatment, they were cultured in an observation room at a temperature of 25° C. and a relative humidity of 60-70%, and the number of surviving insects was examined and the mortality was calculated three days after administration.

Plutella xylostella = assay: Insecticidal activity against Plutella xylostella, Airbrush spraying of cabbage leaf discs; conditions: foliar, 72 h; for pest or weed control at 0.313 µg/mL: dose 0.313 mg/L; for pest or weed control at 0.313 µg/mL / pest or weed control at 0.156 µg/mL: three days after administration, 3rd instar larvae, read-out: lethality rate to Plutella xylostella; for mortality at 0.156 µg/mL: 0.156 mg/L, read-out: Mortality (%, 3 days after administration) 0.156 mg/L; for mortality at 0.156 µg/mL / mortality at 0.313 µg/mL / mortality at 0.625 µg/mL / mortality at 1.25 µg/mL: parallel comparative test; for mortality at 0.313 µg/mL: 0.313 mg/L, read-out: Mortality (%, 3 days after administration) 0.313 mg/L; for mortality at 0.625 µg/mL: 0.625 mg/L, read-out: Mortality (%, 3 days after administration) 0.625 mg/L; for mortality at 1.25 µg/mL: 1.25 mg/L, read-out: Mortality (%, 3 days after administration) 1.25 mg/L; for pest or weed control at 0.156 µg/mL: dose 0.156 mg/L
Procedure: as §1, §2
as §3, with “Cabbage” for “Corn”, “made” for “cut”, “into leaf discs with a diameter of” for “into”, “by using a hole puncher;” for “long segments;”, “disc” for “segment”, “3rd” for “3nd”

Tetranychus cinnabarinus = assay: Acaricidal activity against Tetranychus cinnabarinus in greenhouse, bean seedling spraying; conditions: solution concentration 5 mg/L, adult mites, after 72 hours, read-out: lethality rate to Tetranychus cinnabarinus
Procedure: A bean seedling with two true leaves was taken for inoculating 30-40 adult mites of Tetranychus cinnabarinus. After examining the cardinal number, the whole seedling was treated by spraying with a hand-held sprayer, each treatment being replicated 3 times, and then placed in a standard observation room. The number of surviving mites was examined after 72 hours, and the mortality was calculated.

Chilo suppressalis = assay: Insecticidal activity against Chilo suppressalis, spraying of rice seedlings; conditions: 72 h; for mortality at 0.25 µg/mL: 0.25 mg/L, read-out: Mortality (%, 3 days after administration) 0.25 mg/L; for mortality at 0.25 µg/mL / mortality at 0.5 µg/mL / mortality at 1 µg/mL / mortality at 5 µg/mL: parallel comparative test; for mortality at 0.5 µg/mL: 0.5 mg/L, read-out: Mortality (%, 3 days after administration) 0.5 mg/L; for mortality at 1 µg/mL: 1 mg/L, read-out: Mortality (%, 3 days after administration) 1 mg/L; for mortality at 5 µg/mL: 5 mg/L, read-out: Mortality (%, 3 days after administration) 5 mg/L; for pest or weed control at 1 µg/mL: dose 1 mg/L; for pest or weed control at 1 µg/mL / pest or weed control at 0.5 µg/mL: 3 days after administration, 3rd instar larvae, read-out: lethality rate to Chilo suppressalis; for pest or weed control at 0.5 µg/mL: dose 0.5 mg/L
Procedure: as §1, §2
The determination method was as follows: 1) Preparation of rice seedlings: rice plants were cultivated in a plastic cup with a diameter of 4.5 cm and a height of 4 cm in a thermostatic chamber (temperature 26-28° C., relative humidity 60-80%, illumination 16 hL: 8 hD), and when the rice plants were developed to have 4-5 leaves, strong seedlings with identical growth vigour were selected for chemical treatment, and each treatment was replicated 3 times. 2) Preparation of insects to be tested: Chilo suppressalis, 3rd instar larvae, continuous lab rearing. 3) Inoculation of insects by spraying rice plant stems: The whole rice seedlings were sprayed evenly by using the spraying method, with 15 mL of the compound solution for each treatment. Firstly, the blank control was treated, and then the above procedure was replicated according to the order of test concentration from low to high. After rice seedlings were spray-treated, they were placed in the shade to dry, and the stems about 5 cm from the stem bases were cut off to feed the insects to be tested. Glass culture dishes with a diameter of 90 mm were prepared; each dish was padded with a filter paper at the bottom and added with water to keep moisture; about 5 rice stems were put into each dish and inoculated with 10 larvae, and each culture dish was then sealed with a non-woven and cultured in a thermostatic chamber. The number of residual live insects was examined 3 days after administration.

Row | Structure (SMILES) | pest or weed control at 0.05 µg/mL (Leucania separata) [%] | pest or weed control at 0.313 µg/mL (Plutella xylostella) [%] | pest or weed control at 5 µg/mL (Tetranychus cinnabarinus) [%] | mortality at 0.25 µg/mL (Chilo suppressalis) [%] | mortality at 0.5 µg/mL (Chilo suppressalis) [%] | mortality at 1 µg/mL (Chilo suppressalis) [%] | mortality at 5 µg/mL (Chilo suppressalis) [%] | pest or weed control at 1 µg/mL (Chilo suppressalis) [%] | mortality at 0.156 µg/mL (Plutella xylostella) [%] | mortality at 0.313 µg/mL (Plutella xylostella) [%] | mortality at 0.625 µg/mL (Plutella xylostella) [%] | mortality at 1.25 µg/mL (Plutella xylostella) [%] | pest or weed control at 0.156 µg/mL (Plutella xylostella) [%] | pest or weed control at 0.5 µg/mL (Chilo suppressalis) [%]
1 | Cc1cc(C2=NOC(c3cc(Cl)cc(Cl)c3)(C(F)(F)F)C2)ccc1C(=O)N(CC(=O)NCC(F)(F)F)C(=O)C1CC1 (stereo not shown) [Compound 1] | > 90 | > 90 | ≥ 90 | 73.3 | 83.3 | 100 | 100 | > 90 |  |  |  |  |  | 
2 | Cc1cc(C2=NOC(c3cc(Cl)c(F)c(Cl)c3)(C(F)(F)F)C2)ccc1C(=O)N(CC(=O)NCC(F)(F)F)C(=O)C1CC1 (stereo not shown) [Compound 2] | > 90 | > 90 | ≥ 90 |  |  |  |  | > 90 |  |  |  |  |  | 
3 | COCC(=O)N(CC(=O)NCC(F)(F)F)C(=O)c1ccc(C2=NOC(c3cc(Cl)cc(Cl)c3)(C(F)(F)F)C2)cc1C (stereo not shown) [Compound 19] | > 90 | > 90 | ≥ 90 | 86.7 | 100 | 100 | 100 | > 90 | 100 | 100 | 100 | 100 | > 90 | > 90
4 | CCOCC(=O)N(CC(=O)NCC(F)(F)F)C(=O)c1ccc(C2=NOC(c3cc(Cl)cc(Cl)c3)(C(F)(F)F)C2)cc1C (stereo not shown) [Compound 21] | > 90 | > 90 | ≥ 90 |  |  |  |  | > 90 |  |  |  |  | > 90 | > 90
5 | CCOCC(=O)N(CC(=O)NCC(F)(F)F)C(=O)c1ccc(C2=NOC(c3cc(Cl)c(F)c(Cl)c3)(C(F)(F)F)C2)cc1C (stereo not shown) [Compound 22] | > 90 | > 90 | ≥ 90 |  |  |  |  | > 90 |  |  |  |  | > 90 | 
6 | CCCCOCC(=O)N(CC(=O)NCC(F)(F)F)C(=O)c1ccc(C2=NOC(c3cc(Cl)cc(Cl)c3)(C(F)(F)F)C2)cc1C (stereo not shown) [Compound 27] | > 90 | > 90 | ≥ 90 |  |  |  |  | > 90 |  |  |  |  | > 90 | > 90
7 | COCCC(=O)N(CC(=O)NCC(F)(F)F)C(=O)c1ccc(C2=NOC(c3cc(Cl)cc(Cl)c3)(C(F)(F)F)C2)cc1C (stereo not shown) [Compound 31] | > 90 | > 90 | ≥ 90 | 80 | 96.7 | 100 | 100 | > 90 | 100 | 100 | 100 | 100 | > 90 | > 90
8 | CCOCCC(=O)N(CC(=O)NCC(F)(F)F)C(=O)c1ccc(C2=NOC(c3cc(Cl)cc(Cl)c3)(C(F)(F)F)C2)cc1C (stereo not shown) [Compound 33] | > 90 | > 90 | ≥ 90 |  |  |  |  | > 90 |  |  |  |  | > 90 | > 90
9 | CCOCCC(=O)N(CC(=O)NCC(F)(F)F)C(=O)c1ccc(C2=NOC(c3cc(Cl)c(F)c(Cl)c3)(C(F)(F)F)C2)cc1C (stereo not shown) [Compound 34] | > 90 | > 90 | ≥ 90 |  |  |  |  | > 90 |  |  |  |  | > 90 | 
10 | COC(=O)N(CC(=O)NCC(F)(F)F)C(=O)c1ccc(C2=NOC(c3cc(Cl)cc(Cl)c3)(C(F)(F)F)C2)cc1C (stereo not shown) [KC1, reference compound] |  |  | 0 | 0 | 0 | 0 | 10 |  | 20 | 36.7 | 70 | 100 |  | 
11 | CC(=O)N(CC(=O)NCC(F)(F)F)C(=O)c1ccc(C2=NOC(c3cc(Cl)cc(Cl)c3)(C(F)(F)F)C2)cc1C (stereo not shown) [KC2, reference compound] |  |  |  | 0 | 53.3 | 100 | 100 |  |  |  |  |  |  | 
12 | CCC(=O)N(CC(=O)NCC(F)(F)F)C(=O)c1ccc(C2=NOC(c3cc(Cl)cc(Cl)c3)(C(F)(F)F)C2)cc1C (stereo not shown) [KC3, reference compound] |  |  |  | 0 | 30 | 100 | 100 |  |  |  |  |  |  | 
